From US4020111A, “Propynyloxy alkyl arene insecticides” (priority 1975, dated 1977)

Tests used:
[1] = test system: IN/WHO strain house flies; experiment: topical application test, percent kill after 24 hours, IN/WHO strain; type: in vivo, house fly (susceptible IN/WHO strain)
Description: (§1) In Table IX, and in the tables following it, the doses of topically applied insecticides and of synergists unless otherwise noted are expressed as micrograms per fly (μg/fly).
The synergistic effect of O-(2-propynyl) oximes with mobam was determined from topical application tests on susceptible, female, IN/WHO strain house flies and from tests on resistant, female, Rutgers A strain house flies. The synergist and insecticide were dissolved in ACS Grade acetone in such quantities that a 1.0μ liter volume applied to the thorax of 3-to-5 day old CO2 -anesthetized female adult house flies contained the desired dosage. After being treated, the flies were confined, 10 to a plaster petri dish, with 3-5 dishes/treatment, and held for 24-hr. observation of mortality. Reconstituted skim milk on cotton dental wicks was provided during the holding period. The percent kills after 24 hours are shown in Table X for the IN/WHO strain and Table XI for the Rutgers A strain.
The synergistic effect of benzyl 2-propynyl ethers with mobam was determined from topical application tests on IN/WHO and Rutgers A strain houseflies, following the procedure of Example 5. The percent kills after 24 hours are shown in Table XIV for the IN/WHO strain and in Table XV for the Rutgers A strain.
The effects of varying the insecticide dose and the synergist-insecticide ratio are further illustrated, with synergist compounds II-D, II-E, II-F and Mobam insecticide, in Tables XVI, XVII and XVIII.
The synergistic effect on IN/WHO flies of synergist compound II-K with Dimetilan, pyrolan, Baygon and HRS 1422 is illustrated by the 24 hour percent mortality data in Tables XIX, XX and XXI.
The effect on IN/WHO flies of synergist compound IV-C, identified in Table IV, with mobam was determined by the topical application procedure of Example 5.
The synergistic effect with Diazinon of compounds I-B, I-D, I-F, I-G, I-H and I-I, identified in Tables I and Ia, was determined from topical application tests on IN/WHO strain houseflies and on Rutgers A strain houseflies by the procedure of Example 5. The percent kills after 24 hours are shown in Table XXV for the IN/WHO strain and Table XXVI for the Rutgers A strain.
(§2) The synergistic effect with GS 13005 of compounds I-A, I-B, I-D, I-E, I-F, I-G and I-I was determined from topical application tests to IN/WHO strain, Rutgers A strain and polyvalent CH strain houseflies using the procedures of Example 5. The percent kills of the IN/WHO strain flies after 24 hours are shown in Table XXVIII; of the Rutgers A strain, in Table XXIX; and of the polyvalent CH strain, in Table XXX. The doses of insecticide alone to the CH strain files caused 10-40% mortality.
(§3) The synergistic effect with Diazinon and GS 13005 of various of the benzyl 2-propynyl ethers identified in Tables II and IIa was determined by topical application tests on IN/WHO strain, and Rutgers A strain and polyvalent, resistant, CH strain houseflies using the procedures of Example 5. The percent kills after 24 hours of IN/WHO strain flies are shown in Table XXXI; of Rutgers A strain flies, in Table XXXII; and of CH strain flies, in Table XXXIII. The doses of insecticide alone to the CH strain flies caused 10-40% mortality.
The synergist effect on IN/WHO flies of synergist compound II-K with Gardona and Bidrin is illustrated by the 24 hour percent mortality data in Tables XXXIV and XXXV.
The synergistic effect on IN/WHO strain flies and Rutgers A strain flies of compound IV-C with GS 13005 and with Diazinon was determined by the topical application procedure of Example 5. The percent kills of IN/WHO strain flies after 24 hours are shown in Tables XXXVI and XXXVII; the percent kills of Rutgers A strain flies are shown in Tables XXXVIII and XXXIX.

[2] = test system: polyvalent resistant (CH strain) houseflies; experiment: whole plant or invertebrate; type: in vivo, housefly (CH strain); settings: Musca domestica, topical, 24 h
Description: The effect of O-(2-propynyl) oximes with Dimetilan and with GS 13798 was obtained from tests on polyvalent resistant (CH strain) houseflies that had been chilled and to the dorsal region of which was applied an acetone solution of synergist and insecticide at a ratio of two to one. Duplicate tests were performed using 10 four to five-day old female houseflies per test. After dosage, the flies were put in a plastic petri dish with cotton soaked in a sugar-water solution. These doses of insecticide used without synergist caused 10-40% mortality.
as §1
The effect of compounds II-C, II-D and II-E with Dimetilan and GS 13798 was determined, following the procedure of Example 5, from tests on polyvalent resistant (CH strain) houseflies. These doses of insecticide used without synergist caused 10-40% mortality.
as §2, §3
The synergistic effect with pyrethrum of various synergist compounds was determined by topical application tests on polyvalent, resistant CH strain houseflies following the procedure of Example 5. Application of the insecticide alone caused 10-40% mortality.

mice [3] = experiment: synergism of acute toxicity of Dimetilan, GS 13005, Secobarbital and Methadone (intraperitoneal); type: in vivo, Swiss albino white male mice; settings: for number of mice dead: 48 hours, of eight mice
Description: The synergism of the acute toxicity of Dimetilan by various synergists was determined by tests on Swiss albino, white male mice aged 5 to 6 weeks and weighing 23 to 27 grams. The synergists and insecticides were dissolved in corn oil and the drugs were dissolved in distilled water. All compounds were administered intraperitoneally by injection in the lower quadrent of the abdomen. The synergist was administered in 0.1 ml of corn oil 1 hour prior to administration of the insecticide. Eight mice were treated, per dosage, with each synergist. The mice were watched for a minimum of 6 hours while held in a glass jar with bedding individually after intraperitoneal injection of the test solutions. Lethality was noted, the animals were weighed and transferred in cages, and food and water were supplied. Control mice were given 0.1 ml of corn oil at the time of administration of the synergist to the test mice and 0.1 ml corn oil plus Dimetilan at the time of administration of the insecticide to the test mice.
By the same procedure, the synergism of acute toxicity of GS 13005, Secobarbital and 6-dimethylamino-4,4-diphenyl-3-heptanone [Methadone] was determined.

mice [4] = experiment: extension of Noludar sleeping time by synergists; type: in vivo, Swiss albino white male mice; settings: Noludar 110 mg/K, synergist 110 mg/K; for Relative Sleeping Time: treated/control
Description: (§4) The selectivity of the synergist compounds of this invention is illustrated by the results of sleeping-time extension tests and of acute toxicity tests on Swiss albino white male mice.
(§5) The effect of various synergist compounds on sleeping time of sodium secobarbital [Secobarbital] and of 3,3-diethyl-5-methyl-2,4-dioxypiperidine [Noludar] was determined by administering the drug, with and without synergist, to approximately 38-day old male mice weighing from 25 to 30 grams. Synergists were administered in each of two doses, 74.0 mg/kg (dilution being 2.0 mg/0.1 ml corn oil), and 110.0 mg/kg (dilution 3.0 mg/0.1 ml oil). Secobarbital was administered at a dose of 37.0 mg/kg (dilution 1.0 mg/0.1 ml water). Noludar was administered at a dose of 110.0 mg/kg (dilution 3.0 mg/0.1 ml water). The synergist was administered one hour prior to administration of the Secobarbital or Noludar. Secobarbital and Noludar sleeping times were obtained for both the control (drug only) and the treated (synergist plus drug) mice by noting the time lapse between the administration of the drug and the recovery of the righting reflex, i.e. when the animal regains conciousness and can walk up an inclined wooden tray with coordination. The relative sleeping time (R.S.) was noted. The R.S. is the extended sleeping time in the treated mice (synergist plus drug) divided by the sleeping time in the control mice (drug only). The mean sleeping time for the treated mice and the R.S. are shown on Table XXXXIV for various synergist compounds.

mice [5] = experiment: extension of Secobarbital sleeping time by synergists; type: in vivo, Swiss albino white male mice; settings: Secobarbital 37 mg/K; for Relative Sleeping Time: treated/control
Description: as §4, §5

[6] = test system: Wilson strain house flies; type: in vivo, house fly (susceptible Wilson strain); settings: for Contact Synergistic Ratio, Carbaryl (LC50 insecticide alone / LC50 with synergist): in vivo; for Contact Synergistic Ratio, Pyrolan (LC50 insecticide alone / LC50 with synergist): synergist to insecticide 5:1 by weight, 24 h
Description: The required solutions of the insecticide and of the synergist compound were prepared in acetone at a concentration of one milligram per milliliter. One-pint wide mouth glass jars were coated wiith the appropriate insecticide-synergist combination by rolling the jars containing aliquots of the appropriate solutions diluted to three milliliters with acetone to deposit, by evaporation, a film of the test materials. The flies were transferred under carbon dioxide anesthesia and held in the jar at room temperature. Perforated aluminum foil was used to cover the jars and to hold cotton saturated with 10% sugar solution. Counts were made at intervals, but the recorded mortality was based on 24-hour kill, rather than knockdown. All prostrate nonmoving flies were considered dead. A determination was then made of the contact synergistic ratio [SR], which is the ratio of the LC50 of insecticide alone to the LC50 of the insecticide when applied together with the synergist. The LC50 of the insecticide was estimated from a log-probit plot of percent kill versus dosage. […] The LC50 of the combination of insecticide and synergist was determined at a synergist to insecticide parts by weight ratio of five to one.

mice [7] = experiment: acute toxicity of Dimetilan alone and of synergist alone (intraperitoneal); type: in vivo, Swiss albino white male mice; settings: synergist alone 1000 mg/kg ip, 72 hours, of eight mice
Description: To determine the acute toxicity of dimetilan alone, eight dosage levels of Dimetilan, ranging from 4 to 32 mg per kg wer applied to eight, Swiss, albino, white, male mice per dosage level. The mice weighed approximately 23 to 27 grams and were five to size weeks old. The Dimetilan was administered intraperitoneally in 0.1 ml of corn oil one hour after the administration of the same dose of corn oil alone.
To determine the acute toxicity of the synergist alone, various synergists were administered intraperitoneally at a dose of 1000 mg/kg to each of a group of eight mice. The number of animals dead at the end of 72 hours is reported in the left hand column of Table XXXXVI.

[8] = Dimetilan 8 mg/kg + synergist 240 mg/kg ip
[9] = Dimetilan 8 mg/kg + synergist 80 mg/kg ip

Structure (SMILES)	number of mice dead (mice [3]; [8])	Mean Sleeping Time (mice [4])	Relative Sleeping Time (mice [4])	Relative Sleeping Time (mice [5]; synergist 110 mg/K)	Contact Synergistic Ratio, Carbaryl (LC50 insecticide alone / LC50 with synergist) [6]	Contact Synergistic Ratio, Pyrolan (LC50 insecticide alone / LC50 with synergist) [6]	further results
CCOP(=S)(OCC)Oc1cc(C)nc(C(C)C)n1 [Diazinon, O,O-diethyl O-(2-isopropyl-4-methyl-6-pyrimidyl) phosphorothioate, reference compound]							percent kill after 24 hours ([1]; Diazinon alone 0.03 μg/fly, 1440 min): 5%; mortality at 5 µg/fly ([2]; read-out: mortality, insecticide alone): 10 to 40%
CNC(=O)Oc1cccc2ccc(C)nc12 [GS 13798, 8-(2-methylquinolyl)-N-methylcarbamate, reference compound]							mortality at 1 µg/fly ([2]; read-out: mortality, insecticide used without synergist): 10 to 40%
C#CCOCc1cc(Cl)c(Cl)cc1Cl [II-F]	0	38 min	1.3	1.0	150	15	percent mortality 24 hours ([1]; Mobam 0.13 μg/fly, synergist/insecticide 5/1): 23%; Mean Sleeping Time (mice [5]; synergist 110 mg/K): 46 min
C#CCn1ncc2ccc(Cl)cc21 [III-D]	1	45 min	1.5	1.2	250	25	Mean Sleeping Time (mice [5]; synergist 110 mg/K): 55 min
C#CCOC(c1ccc(Cl)cc1Cl)C(C)[N+](=O)[O-] (stereo not shown) [IV-A, 2-propynyl 1-(2,4-dichlorophenyl)-2-nitropropyl ether]	7	78 min	2.7		134	10	number of mice dead (mice [3]; [9]): 4; Mean Sleeping Time (mice [5]; synergist 74 mg/K): 56 min; Relative Sleeping Time (mice [5]; synergist 74 mg/K): 2.3
Cc1cc(OC(=O)N(C)C)n(-c2ccccc2)n1 [Pyrolan, 3-methyl-1-phenyl-5-pyrazolyl-N-dimethylcarbamate, reference compound]							24 hour percent mortality ([1]; Pyrolan alone 0.63 μg/fly): 0%; 24 hour percent mortality ([1]; Pyrolan alone 1.3 μg/fly): 3%; 24 hour percent mortality ([1]; Pyrolan alone 2.5 μg/fly): 10%; 24 hour percent mortality ([1]; Pyrolan alone 5.0 μg/fly): 43%; LC50 of insecticide alone ([6]; insecticide alone, 24-hour kill): 0.15 mg/jar
CCOCCOCCOC(C)Oc1ccc2c(c1)OCO2 (stereo not shown) [Sesoxane, reference compound]	8		3.1	8.3			number of mice dead (mice [7]): 1; number of mice dead (mice [3]; [9]): 8; mice lethality (number dead) (mice [3]; GS 13005 71 mg/kg + synergist 213 mg/kg): 0; mice lethality (number dead) (mice [3]; Methadone 32 mg/kg + synergist 215 mg/kg): 5; mice lethality (number dead) (mice [3]; Secobarbital 90 mg/kg + synergist 215 mg/kg): 6; Relative Sleeping Time (mice [5]; synergist 74 mg/K): 6.1
